Reference: patent US20100317528A1, “HERBICIDE CONTAINING BENZOYLPYRAZOLE COMPOUND” (ISHIHARA SANGYO KAISHA, LTD., priority 2006, published 2010)

Key:
Assay type in all cases: in vivo
rice (Oryza sativa L.) [1] = assay: Test Example 1: foliar treatment, upland pot test, rice; details: 31 g/ha active ingredient, observed 17th to 25th day after application; for inhibition at 31 g/ha: Oryza sativa, read-out: Growth inhibition rate (%) Rice
How it was run: (§1)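 Upland soil pots, sown; foliar spray at pigweed cotyledon–2.0 leaf, velvetleaf 0.1–1.5 leaf, rice 1.0–3.0 leaf, wheat 1.7–3.4 leaf. WP/EC formulations, prescribed a.i. rate, 500 L/ha spray volume + 0.1 vol % spreader. Visual % inhibition, d17–25.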

wheat (Triticum spp.) [2] = assay: Test Example 1: foliar treatment, upland pot test, wheat; details: 31 g/ha active ingredient, observed 17th to 25th day after application; for inhibition at 31 g/ha: Triticum, read-out: Growth inhibition rate (%) Wheat
How it was run: as §1

[3] = system: guineagrass (Panicum maximum Jacq.); assay: Test Example 3: foliar treatment at later leaf stage, guineagrass; details: 3.5 to 4.3 leaf stage, KUSARINOH 0.1 vol %, 500 L/ha
Source text: (§2) Upland field soil was put into a 1/1,000,000 hectare pot, and seeds of various plants were sown. When the respective plants reached predetermined leaf stage ((1) green foxtail (Setaria viridis L.): 4.0 to 4.5 leaf stage, (2) guineagrass (Panicum maximum Jacq.): 3.5 to 4.3 leaf stage, and (3) corn (Zea mays L.): 4.0 to 4.3 leaf stage, wettable powders or emulsifiable concentrates of compounds of the above formula (I), prepared in accordance with a conventional preparation method, were weighed so that the active ingredients became the prescribed amounts, and diluted with water in an amount corresponding to 300 or 500 liter per 1 hectare (containing of an agricultural spreader (MSO concentrate, manufactured by Cognis Corporation or “KUSARINOH”, manufactured by NIHON NOHYAKU CO., LTD.). The spray solutions thus prepared were applied for foliar treatment by a small sprayer.
(§3) On the 18th to 24th day after application, the state of growth of the respective plants was visually observed, and the herbicidal effect was evaluated by a growth inhibition rate (%) of 0 (equivalent to the non-treated area) to 100% (complete kill).

[4] = system: crabgrass (Digitaria sanquinalis L.); assay: Test Example 2: soil application on the day after sowing, crabgrass; details: 250 g/ha active ingredient, observed 19th to 28th day after application; for inhibition at 250 g/ha: Digitaria, read-out: Growth inhibition rate (%) Crabgrass
How it was run: (§4)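 Pre-emergence soil spray on the day after sowing in upland soil pots, formulated compounds diluted in water equivalent to 500 liter per hectare at prescribed active-ingredient rates. Growth inhibition (0–100%, 100 = complete kill) scored visually 19th to 28th day after application.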

[5] = system: redroot pigweed (Amaranthus retroflexus L.); assay: Test Example 1: foliar treatment, upland pot test, redroot pigweed; details: 31 g/ha active ingredient, observed 17th to 25th day after application; for inhibition at 31 g/ha: Amaranthus retroflexus, read-out: Growth inhibition rate (%) Redroot pigweed
How it was run: as §1

[6] = system: redroot pigweed (Amaranthus retroflexus L.); assay: Test Example 2: soil application on the day after sowing, redroot pigweed; details: 250 g/ha active ingredient, observed 19th to 28th day after application; for inhibition at 250 g/ha: Amaranthus retroflexus, read-out: Growth inhibition rate (%) Redroot pigweed
How it was run: as §4

corn (Zea mays L.) [7] = assay: Test Example 2: soil application on the day after sowing, corn; details: 250 g/ha active ingredient, observed 19th to 28th day after application; for inhibition at 250 g/ha: Zea mays, read-out: Growth inhibition rate (%) Corn
How it was run: as §4

[8] = system: velvetleaf (Abutilon theophrasti MEDIC.); assay: Test Example 1: foliar treatment, upland pot test, velvetleaf; details: 31 g/ha active ingredient, observed 17th to 25th day after application; for inhibition at 31 g/ha: Abutilon theophrasti, read-out: Growth inhibition rate (%) Velvetleaf
How it was run: as §1

[9] = system: crabgrass (Digitaria sanguinalis L.); assay: Test Example 1: foliar treatment, upland pot test, crabgrass; details: 31 g/ha active ingredient, observed 17th to 25th day after application; for inhibition at 31 g/ha: Digitaria sanguinalis, read-out: Growth inhibition rate (%) Crabgrass
[10] = system: velvetleaf (Abutilon theophrasti MEDIC.); assay: Test Example 2: soil application on the day after sowing, velvetleaf; details: 250 g/ha active ingredient, observed 19th to 28th day after application; for inhibition at 250 g/ha: Abutilon theophrasti, read-out: Growth inhibition rate (%) Velvetleaf
How it was run: as §4

[11] = system: soybean (Glycine max Merr.); assay: Test Example 1: foliar treatment, upland pot test, soybean; details: 31 g/ha active ingredient, observed 17th to 25th day after application; for inhibition at 31 g/ha: Glycine max, read-out: Growth inhibition rate (%) Soybean
corn (Zea mays L.) [12] = assay: Test Example 3: foliar treatment at later leaf stage, corn; details: 4.0 to 4.3 leaf stage, MSO Concentrate 0.5 vol %, 300 L/ha
Source text: as §2, §3

[13] = system: green foxtail (Setaria viridis L.); assay: Test Example 3: foliar treatment at later leaf stage, green foxtail; details: 4.0 to 4.5 leaf stage, MSO Concentrate 0.5 vol %, 300 L/ha
Source text: as §2, §3

[14] = system: prickly sida (Sida spinosa L.); assay: Test Example 1: foliar treatment, upland pot test, prickly sida; details: 31 g/ha active ingredient, observed 17th to 25th day after application; for inhibition at 31 g/ha: Sida spinosa, read-out: Growth inhibition rate (%) Prickly sida
[15] = system: green foxtail (Setaria viridis L.); assay: Test Example 1: foliar treatment, upland pot test, green foxtail; details: 31 g/ha active ingredient, observed 17th to 25th day after application; for inhibition at 31 g/ha: Setaria viridis, read-out: Growth inhibition rate (%) Green foxtail
corn (Zea mays L.) [16] = assay: Test Example 1: foliar treatment, upland pot test, corn; details: 31 g/ha active ingredient, observed 17th to 25th day after application; for inhibition at 31 g/ha: Zea mays, read-out: Growth inhibition rate (%) Corn
[17] = system: barnyardgrass (Echinochloa crus-galli L.); assay: Test Example 1: foliar treatment, upland pot test, barnyardgrass; details: 31 g/ha active ingredient, observed 17th to 25th day after application; for inhibition at 31 g/ha: Echinochloa crus-galli, read-out: Growth inhibition rate (%) Barnyardgrass
[18] = system: prickly sida (Sida spinosa L.); assay: Test Example 2: soil application on the day after sowing, prickly sida; details: 250 g/ha active ingredient, observed 19th to 28th day after application
How it was run: as §4

wheat (Triticum spp.) [19] = assay: Test Example 2: soil application on the day after sowing, wheat; details: 250 g/ha active ingredient, observed 19th to 28th day after application
How it was run: as §4

[20] = system: soybean (Glycine max Merr.); assay: Test Example 2: soil application on the day after sowing, soybean; details: 250 g/ha active ingredient, observed 19th to 28th day after application
How it was run: as §4

[21] = system: barnyardgrass (Echinochloa crus-galli L.); assay: Test Example 2: soil application on the day after sowing, barnyardgrass; details: 250 g/ha active ingredient, observed 19th to 28th day after application
How it was run: as §4

rice (Oryza sativa L.) [22] = assay: Test Example 2: soil application on the day after sowing, rice; details: 250 g/ha active ingredient, observed 19th to 28th day after application
How it was run: as §4

[23] = system: green foxtail (Setaria viridis L.); assay: Test Example 2: soil application on the day after sowing, green foxtail; details: 250 g/ha active ingredient, observed 19th to 28th day after application
How it was run: as §4

COCCOc1c(S(C)(=O)=O)ccc(C(=O)c2cnn(C)c2O)c1C [Compound No. 151, 5-hydroxy-1-methylpyrazol-4-yl 3-(2-methoxyethoxy)-2-methyl-4-(methylsulfonyl)phenyl ketone]
inhibition at 31 g/ha (rice (Oryza sativa L.) [1]): 60%
inhibition at 31 g/ha (wheat (Triticum spp.) [2]): 10%
inhibition at 31 g/ha ([3]; Megathyrsus maximus, read-out: Growth inhibition rate (%) (18th day after application) Guineagrass): 93%
inhibition at 250 g/ha [4]: 100%
inhibition at 31 g/ha [5]: 100%
inhibition at 250 g/ha [6]: 100%
inhibition at 250 g/ha (corn (Zea mays L.) [7]): 0%
inhibition at 31 g/ha [8]: 98%
inhibition at 31 g/ha [9]: 100%
inhibition at 250 g/ha [10]: 70%
inhibition at 31 g/ha [11]: 95%
inhibition at 120 g/ha (corn (Zea mays L.) [12]; Zea mays, read-out: Growth inhibition rate (%) (21st day after application) Corn): 2%
inhibition at 7 g/ha ([13]; Setaria viridis, 7 g/ha, read-out: Growth inhibition rate (%) (24th day after application) Green foxtail): 97%
inhibition at 15 g/ha ([13]; Setaria viridis, 15 g/ha, read-out: Growth inhibition rate (%) (24th day after application) Green foxtail): 100%
inhibition at 31 g/ha [14]: 80%
inhibition at 31 g/ha [15]: 100%
inhibition at 31 g/ha (corn (Zea mays L.) [16]): 30%
inhibition at 31 g/ha [17]: 100%

COCCOc1c(S(C)(=O)=O)ccc(C(=O)c2cnn(C(C)C)c2O)c1C [compound 258]
Growth inhibition rate (%) Rice (rice (Oryza sativa L.) [1]): 95%
Growth inhibition rate (%) Wheat (wheat (Triticum spp.) [2]): 0%
Growth inhibition rate (%) Prickly sida [18]: 40%
Growth inhibition rate (%) Crabgrass [4]: 100%
Growth inhibition rate (%) Redroot pigweed [5]: 95%
Growth inhibition rate (%) Redroot pigweed [6]: 100%
Growth inhibition rate (%) Corn (corn (Zea mays L.) [7]): 0%
Growth inhibition rate (%) Velvetleaf [8]: 98%
Growth inhibition rate (%) Wheat (wheat (Triticum spp.) [19]): 0%
Growth inhibition rate (%) Crabgrass [9]: 100%
Growth inhibition rate (%) Velvetleaf [10]: 100%
Growth inhibition rate (%) Soybean [20]: 0%
Growth inhibition rate (%) Soybean [11]: 90%
Growth inhibition rate (%) Barnyardgrass [21]: 100%
Growth inhibition rate (%) Rice (rice (Oryza sativa L.) [22]): 80%
Growth inhibition rate (%) (24th day after application) Green foxtail ([13]; 7 g/ha): 95%
Growth inhibition rate (%) (24th day after application) Green foxtail ([13]; 15 g/ha): 100%
Growth inhibition rate (%) Green foxtail [23]: 100%
Growth inhibition rate (%) Prickly sida [14]: 50%
Growth inhibition rate (%) Green foxtail [15]: 100%
Growth inhibition rate (%) Corn (corn (Zea mays L.) [16]): 10%
Growth inhibition rate (%) Barnyardgrass [17]: 100%

CCn1ncc(C(=O)c2ccc(S(C)(=O)=O)c(OCCOC)c2C)c1O [compound 131]
Growth inhibition rate (%) Rice (rice (Oryza sativa L.) [1]): 70%
Growth inhibition rate (%) Wheat (wheat (Triticum spp.) [2]): 30%
Growth inhibition rate (%) Prickly sida [18]: 30%
Growth inhibition rate (%) (18th day after application) Guineagrass ([3]; 31 g/ha): 93%
Growth inhibition rate (%) Crabgrass [4]: 100%
Growth inhibition rate (%) Redroot pigweed [5]: 100%
Growth inhibition rate (%) Redroot pigweed [6]: 100%
Growth inhibition rate (%) Corn (corn (Zea mays L.) [7]): 30%
Growth inhibition rate (%) Velvetleaf [8]: 100%
Growth inhibition rate (%) Wheat (wheat (Triticum spp.) [19]): 40%
Growth inhibition rate (%) Crabgrass [9]: 100%
Growth inhibition rate (%) Velvetleaf [10]: 90%
Growth inhibition rate (%) Soybean [20]: 40%
Growth inhibition rate (%) Soybean [11]: 100%
Growth inhibition rate (%) Barnyardgrass [21]: 100%
Growth inhibition rate (%) (21st day after application) Corn (corn (Zea mays L.) [12]; 120 g/ha): 0%
Growth inhibition rate (%) Rice (rice (Oryza sativa L.) [22]): 100%
Growth inhibition rate (%) (24th day after application) Green foxtail ([13]; 7 g/ha): 98%
Growth inhibition rate (%) (24th day after application) Green foxtail ([13]; 15 g/ha): 100%
Growth inhibition rate (%) Green foxtail [23]: 100%
Growth inhibition rate (%) Prickly sida [14]: 70%
Growth inhibition rate (%) Green foxtail [15]: 100%
Growth inhibition rate (%) Corn (corn (Zea mays L.) [16]): 10%
Growth inhibition rate (%) Barnyardgrass [17]: 100%

Cn1ncc(C(=O)c2ccc(S(C)(=O)=O)c(Cl)c2Cl)c1O [compound 238]
inhibition at 31 g/ha (rice (Oryza sativa L.) [1]): 0%
inhibition at 31 g/ha (wheat (Triticum spp.) [2]): 0%
inhibition at 250 g/ha ([18]; Sida spinosa, read-out: Growth inhibition rate (%) Prickly sida): 0%
inhibition at 250 g/ha [4]: 20%
inhibition at 31 g/ha [5]: 50%
inhibition at 250 g/ha [6]: 30%
inhibition at 250 g/ha (corn (Zea mays L.) [7]): 0%
inhibition at 31 g/ha [8]: 30%
inhibition at 250 g/ha (wheat (Triticum spp.) [19]; Triticum, read-out: Growth inhibition rate (%) Wheat): 0%
inhibition at 31 g/ha [9]: 0%
inhibition at 250 g/ha [10]: 0%
inhibition at 250 g/ha ([20]; Glycine max, read-out: Growth inhibition rate (%) Soybean): 0%
inhibition at 31 g/ha [11]: 50%
inhibition at 250 g/ha ([21]; Echinochloa crus-galli, read-out: Growth inhibition rate (%) Barnyardgrass): 0%
inhibition at 250 g/ha (rice (Oryza sativa L.) [22]; Oryza sativa, read-out: Growth inhibition rate (%) Rice): 0%
inhibition at 250 g/ha ([23]; Setaria viridis, read-out: Growth inhibition rate (%) Green foxtail): 20%
inhibition at 31 g/ha [14]: 0%
inhibition at 31 g/ha [15]: 0%
inhibition at 31 g/ha (corn (Zea mays L.) [16]): 0%
inhibition at 31 g/ha [17]: 0%
